According to patent US7015345B2, “Propionic acid derivatives” (Asahi Kasei Pharma Corporation, priority 2002, dated 2006):
Like-named read-outs stand apart in the source and are kept apart here.

Assays:
[1] = test system: hamsters fed with high cholesterol diet; experiment: Total plasma cholesterol and non-HDL cholesterol reducing action in hamster fed high cholesterol diet; format: in vivo; details: Mesocricetus auratus, 192 h, hamsters on high cholesterol diet, 10 mg/kg oral once a day for one week, plasma on 8th day
Procedure: Test for Measuring Total Plasma Cholesterol Reducing Action and Non-HDL Cholesterol (VLDL Cholesterol+LDL Cholesterol) Reducing Action in Hamster
A test compound (10 mg/kg) was administered once a day for one week to hamsters fed with high cholesterol diet (CE-2 (Clea Japan)+1% cholesterol+10% coconut oil) for five days. The plasma cholesterol level and the plasma HDL cholesterol level were measured immediately before the start of the administration of the test sample or vehicle on the 1st day, and the hamsters were divided into groups so that the groups gave no significant value of initial levels of the both measurements. Each of the test samples was dissolved in a 0.5% methylcellulose (MC) solution and orally administered. A 0.5% methylcellulose (MC) solution was orally administered to the hamsters as a vehicle control group. A blood sample was collected on the 8th day, and the plasma cholesterol level and the plasma HDL cholesterol level were measured. The total cholesterol reducing rate was obtained by using the following equation. [formula]
Further, non-HDL cholesterol level (LDL cholesterol level+VLDL cholesterol level) was calculated as (Total cholesterol level−HDL cholesterol level), and the reducing rate thereof was calculated by using the following equation. [formula]

[2] = test system: 3T3-L1 precursor adipocytes; experiment: Uptake of glucose by adipocytes ([3H]-2-deoxy-glucose uptake); format: cell-based; details: Mus musculus, 100 nM compound, 4 to 5 days culture, 100 nM insulin stimulation, relative to 10 μM rosiglitazone taken as 100%, read-out: Amount of glucose uptake (%)
Procedure: (§1) Test for Uptake of Glucose By Adipocytes and Test for Triglyceride Accumulation in Adipocytes
According to the method of Mukherjee et al. (Mol. Endocrinol, 14, 1425–1433, 2000), a glucose uptake experiment was performed by using cultured cells. 3T3-L1 precursor adipocytes were cultured for 4 to 5 days in the presence of a test compound, and then stimulated with 100 nM insulin, and then the amount of [^3H]-2-deoxy-glucose (2DG) uptake by the cells was measured. The amount of glucose uptake provided after the treatment with 100 nM of each compound was measured, and represented as a relative value based on the amount of glucose uptake provided after the treatment with 10 μM rosiglitazone, which was taken as 100%.

[3] = test system: 3T3-L1 precursor adipocytes; experiment: Triglyceride accumulation in adipocytes; format: cell-based; details: Mus musculus, 100 nM compound, 4 to 5 days culture, relative to 10 μM rosiglitazone taken as 100%, read-out: Amount of accumulated triglyceride (%)
Procedure: as §1
Further, 3T3-L1 precursor adipocytes were cultured for 4 to 5 days in the presence of a test compound, and then the amount of triglyceride in the cells was measured according to the method of Shibata T et al. (Eur. J. Pharmacol., 364 (2–3), 211–219, 1999). The amount of accumulated triglyceride provided after the treatment with 100 nM of each compound was measured, and represented as a relative value based on the amount of accumulated triglyceride provided after the treatment with 10 μM rosiglitazone, which was taken as 100%.

db/db mice = experiment: Hypoglycemic action and triglyceride-decreasing action in db/db mice; format: in vivo; details: Mus musculus, 360 h; for inhibition in vivo at 1 mg/kg: 1 mg/kg oral once a day for 2 weeks; for inhibition in vivo at 3 mg/kg: 3 mg/kg oral once a day for 2 weeks
Procedure: Test for Measuring Hypoglycemic Action and Triglyceride-Decreasing Action in db/db Mice
Each of test compounds was administered once a day for 2 weeks to db/db mice genetically presenting pathological conditions of obesity, hyperglycemia, and hyperlipidemia. Blood was collected from the mice immediately before the start of administration of a test sample or a vehicle on the first day. Plasma glucose levels and triglyceride levels were measured, and the mice were divided into groups so that average glucose levels and triglyceride levels gave no significant value among the groups. All the test samples were suspended in a 0.5% methylcellulose (MC) solution and orally administered. For a vehicle-administered control group, a 0.5% MC solution was orally administered. Blood samples were collected from the mice on the 15th day, and plasma glucose levels and triglyceride levels were measured. A hypoglycemic rate and triglyceride-reducing rate were calculated by using the following equations.

Zucker rats = experiment: Liver triglyceride contents in Zucker rats; format: in vivo; details: Rattus norvegicus, 336 h, 1 mg/kg once a day for 2 weeks, read-out: Triglyceride reducing rate (%)
Procedure: Measurement of Liver Triglyceride Contents in Zucker Rats
To Zucker rats, a vehicle (0.5% MC), a compound of the present invention or fenofibrate (Sigma) was administered once a day for 2 weeks. The livers were isolated on the next day of the final administration, and amounts of triglyceride in the livers were determined. Triglyceride was extracted by adding 5 ml of a mixture of hexane and isopropanol (2:1, V/V) to 100 mg of liver, homogenizing the liver using Polytron homogenizer, then sufficiently stirring and centrifuging the homogenate at 2000 g for 10 minutes at room temperature. The amount of triglyceride in the solution layer was measured.

[4] = non-HDL = total cholesterol - HDL cholesterol, read-out: Non-HDL cholesterol reducing rate (%)
[5] = read-out: Total cholesterol reducing rate (%)
[6] = plasma glucose on 15th day vs vehicle, read-out: Hypoglycemic rate (%)
[7] = plasma triglyceride on 15th day vs vehicle, read-out: Triglyceride reducing rate (%)

Compound | inhibition in vivo at 10 mg/kg [1, 4] [%] | inhibition in vivo at 10 mg/kg [1, 5] [%] | Emax at 0.1 µM [2] [%] | Emax at 0.1 µM [3] [%] | inhibition in vivo at 1 mg/kg (db/db mice; [6]) [%] | inhibition in vivo at 1 mg/kg (db/db mice; [7]) [%] | inhibition in vivo at 1 mg/kg (Zucker rats) [%] | inhibition in vivo at 3 mg/kg (db/db mice; [6]) [%] | inhibition in vivo at 3 mg/kg (db/db mice; [7]) [%]
CCCCCCCN(CCOc1ccc(CC(OCCC)C(=O)O)cc1)C(=O)OC (stereo not drawn) [Example 120, 3-{4-[2-(N-heptyl-N-methoxycarbonylamino)ethoxy]phenyl}-2-propoxypropionic acid] | 25 | 28 | 90 | 88 | 39 | 48 | 28 | – | –
CCCCOCCN(CCOc1ccc(CC(OCC)C(=O)O)cc1)C(=O)OC(C)C (stereo not drawn) [Example 122, 3-(4-{2-[N-(2-butoxyethyl)-N-isopropoxycarbonylamino]ethoxy}phenyl)-2-ethoxypropionic acid] | 9 | 10 | 92 | 90 | – | – | 2 | 14 | 21
CCCCOCCN(CCOc1ccc(CC(OCC)C(=O)O)cc1)C(=O)OCC(C)C (stereo not drawn) [Example 123, 3-(4-{2-[N-(2-butoxyethyl)-N-isobutoxycarbonylamino]ethoxy}phenyl)-2-ethoxypropionic acid] | 25 | 25 | 99 | 96 | – | – | 35 | 8 | 32
CCCCCCCN(CCOc1ccc(CC(OC(C)C)C(=O)O)cc1)C(=O)OC(C)C (stereo not drawn) [Example 125, 3-{4-[2-(N-heptyl-N-isopropoxycarbonylamino)ethoxy]phenyl}-2-isopropoxypropionic acid] | 48 | 45 | 97 | 98 | 42 | 64 | 36 | – | –
CCCCOCCN(CCOc1ccc(CC(OC(C)C)C(=O)O)cc1)C(=O)OC(C)C (stereo not drawn) [Example 130, 3-(4-{2-[N-(2-butoxyethyl)-N-isopropoxycarbonylamino]ethoxy}phenyl)-2-isopropoxypropionic acid] | 22 | 22 | 92 | 90 | 41 | 40 | 32 | – | –
CCCCOCCN(CCOc1ccc(CC(OC(C)C)C(=O)O)cc1)C(=O)OCC(C)C (stereo not drawn) [Example 132, 3-(4-{2-[N-(2-butoxyethyl)-N-isobutoxycarbonylamino]ethoxy}phenyl)-2-isopropoxypropionic acid] | 20 | 18 | 96 | 97 | 7 | 14 | 39 | – | –
